# Values of other authors in US10561746B2, “Gel formulations for guiding radiotherapy” (DANMARKS TEKNISKE UNIVERSITET, priority 2013, dated 2020).
substance,measurement,setting,value
H-(FEFEFKFK)2-OH [FEK16],concentration at which self-assembled hydrogels form,"in the presence of mM concentrations of NaCl, KCl, and CaCl2",> 10000 µg/mL
same,solubility in pure H2O,pure H2O,highly soluble
